Data on 10 compounds can be found in PMC7126871 (Bioorganic & Medicinal Chemistry Letters, 2012).

For data set [1] the following is noted: pH <7; cited from earlier work.
Data set [2] has as its system cancer cell lines. The following applies: cited from earlier work.
Data set [3] deals with Coxsackie A strains A7 or A21. Nature of the data set: organism not typed. Conditions: MRC5, read-out: EC50 Coxsackie A. The class given is cell-based.
Data set [4] relates to panel of RNA viruses. The class given is cell-based.
In data set [5] the test system is replicon cells. The following applies: human.
Data set [6] concerns HCV (1b) subgenomic replicon. The class given is cell-based.

Consider `C[C@@]1(n2cnc3c(N)ncnc32)O[C@H](CO)[C@@H](O)[C@H]1O` [1′-C-Me adenosine], for which the “stability in aqueous solutions” value in data set [1] is “rapidly degraded”. On to `Nc1ncnc2c1ccn2[C@@H]1O[C@H](CO)[C@@H](O)[C@H]1O` [Compound 1, 7-Deazaadenosine], for which the “cytotoxicity (in words)” value in data set [2] is given as “cytotoxic”.

A word on the EC50: it is the concentration giving half of the maximal effect. As for `N#C[C@@]1(c2ccc3c(N)ncnn23)O[C@H](CO)[C@@H](O)[C@H]1O` [Compound 3a], the EC50 in data set [3] was above 30 µM. Also, the “antiviral activity against panel of RNA viruses (in words)” value (from here on “antiviral activity against panel”) in data set [4] is recorded as “broader spectrum activity”. What is called CC50 is the concentration giving 50% cytotoxicity. A low value points to greater toxicity to the cells. `C[C@@]1(c2ccc3c(N)ncnn23)O[C@H](CO)[C@@H](O)[C@H]1O` [Compound 3b] came in with a CC50 in data set [5] above 89 µM. Further, the EC50 in data set [3] was above 30 µM. In addition, in data set [4], the “antiviral activity against panel” value was “reduced potency and a narrower spectrum of antiviral activity”.

As for `C=C[C@@]1(c2ccc3c(N)ncnn23)O[C@H](CO)[C@@H](O)[C@H]1O` [Compound 3c], in data set [3], the EC50 is above 30 µM. Moreover, in data set [4], the “antiviral activity against panel” value is “reduced potency and a narrower spectrum of antiviral activity”. On to `C#C[C@@]1(c2ccc3c(N)ncnn23)O[C@H](CO)[C@@H](O)[C@H]1O` [Compound 3d], for which, in data set [3], the EC50 was above 30 µM. Besides, the “antiviral activity against panel” value in data set [4] is recorded as “no activity”.

As to `CC(C)(C)C(=O)SCCOP(=O)(OCCSC(=O)C(C)(C)C)OC[C@H]1O[C@@](C#N)(c2ccc3c(N)ncnn23)[C@H](O)[C@@H]1O` [Compound 9a], in data set [6], the “replicon activity compared to the parent nucleosides (in words)” value was “markedly enhanced replicon activity”.

With `CC(C)(C)C(=O)SCCOP(=O)(OCCSC(=O)C(C)(C)C)OC[C@H]1O[C@@](C)(c2ccc3c(N)ncnn23)[C@H](O)[C@@H]1O` [Compound 9b], in data set [6], the “replicon activity compared to the parent nucleosides (in words)” value was “markedly enhanced replicon activity” and the “selectivity index (CC50/EC50)” value is reported as “less than 10 fold”. In the case of `C=C[C@@]1(c2ccc3c(N)ncnn23)O[C@H](COP(=O)(OCCSC(=O)C(C)(C)C)OCCSC(=O)C(C)(C)C)[C@@H](O)[C@H]1O` [Compound 9c], the “selectivity index (CC50/EC50)” value in data set [6] was “less than 10 fold”. For the compound `C#C[C@@]1(c2ccc3c(N)ncnn23)O[C@H](COP(=O)(OCCSC(=O)C(C)(C)C)OCCSC(=O)C(C)(C)C)[C@@H](O)[C@H]1O` [Compound 9d], the “selectivity index (CC50/EC50)” value in data set [6] is “less than 10 fold”.
